Test results as given in US8193191B2, “Urotensin II receptor antagonists” (Janssen Pharmaceutica N.V., priority 2006, dated 2012).
Read-outs that look alike come from different tables or passages of the source.

What was measured:
[1] = target: T1, rat GPR14 (U-II receptor) (Rattus norvegicus, UniProt P49684); experiment: Rat UII Calcium Mobilization FLIPR Assay; assay type: cell-based; conditions: average value for the compound tested; read-out: Rat UII FLIPR Average IC50
T1 construct: expressed in transfected cells
T1 sequence (P49684 1-386): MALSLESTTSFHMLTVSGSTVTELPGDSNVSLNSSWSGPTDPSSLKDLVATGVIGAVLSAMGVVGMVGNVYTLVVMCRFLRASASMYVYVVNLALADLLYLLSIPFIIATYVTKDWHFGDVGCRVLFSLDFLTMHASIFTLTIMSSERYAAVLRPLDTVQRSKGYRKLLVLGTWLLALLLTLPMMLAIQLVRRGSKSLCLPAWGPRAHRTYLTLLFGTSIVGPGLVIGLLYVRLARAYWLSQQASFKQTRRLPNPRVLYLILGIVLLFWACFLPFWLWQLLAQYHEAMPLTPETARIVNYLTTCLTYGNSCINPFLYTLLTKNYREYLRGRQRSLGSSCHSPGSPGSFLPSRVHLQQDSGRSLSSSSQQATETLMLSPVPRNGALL
Outline: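 CHO cells stably expressing rat U-II receptor, seeded 24 h before assay, were loaded with FLIPR calcium dye in HBSS/20 mM HEPES/0.1% BSA/2.5 mM probenecid, pH 7.4, for 1 h at 37° C. Calcium mobilization then read by FLIPR at 23° C.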

[2] = target: T2, endogenous human UII receptor (Homo sapiens, UniProt Q9UKP6); experiment: Human Radioligand Binding Assay ((^125I)-U-II binding to human skeletal muscle myoblasts)
T2 sequence (Q9UKP6 1-389): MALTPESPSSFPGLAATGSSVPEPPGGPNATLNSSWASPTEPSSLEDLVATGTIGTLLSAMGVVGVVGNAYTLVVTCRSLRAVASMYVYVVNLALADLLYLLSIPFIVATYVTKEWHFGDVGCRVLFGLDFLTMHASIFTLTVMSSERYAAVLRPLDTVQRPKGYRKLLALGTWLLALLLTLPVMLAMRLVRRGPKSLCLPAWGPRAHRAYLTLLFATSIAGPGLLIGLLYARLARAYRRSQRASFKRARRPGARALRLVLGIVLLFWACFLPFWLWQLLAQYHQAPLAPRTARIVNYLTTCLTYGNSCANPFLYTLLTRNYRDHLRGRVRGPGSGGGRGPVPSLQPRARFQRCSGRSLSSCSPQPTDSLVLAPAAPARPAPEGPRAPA

[3] = target: T3, Human UII receptor, 6D9 human rhabdomyosarcoma cells (Homo sapiens, UniProt Q9UKP6); experiment: Human UII Calcium Mobilization Assay; assay type: cell-based; conditions: average value, FLIPR TETRA, read-out: Human UII Ca^+ Mobilization Average IC50
T3 construct: 6D9: isolated by dilution subcloning of RMS13 cells, ATCC® Number: CRL-2061; host or cells: 6D9 human rhabdomyosarcoma cells (subclone of RMS13)
T3 sequence (Q9UKP6 1-389): T2 sequence (Q9UKP6 1-389)
Description: 6D9 human rhabdomyosarcoma cells were seeded into tissue culture treated 384-well black-walled clear bottom plates (3712, Corning Incorporated, Corning, N.Y.) at 8,000 cells/well in 25 μL of culture medium, and maintained in an incubator (5% CO2 at 37° C.) for 22 hrs prior to the calcium mobilization assay. 25 μL of dye solution was added to the wells such that the final liquid volume before agonist/antagonist treatment was 50 μL for all assays. The cell plates were incubated at 37° C. for 45 minutes and the fluorescence intensity was measured on a Fluorometric Imaging Plate Reader (FLIPR^TETRA, Molecular Devices, Sunnyvale, Calif.).
Antagonist and agonist U-II were added at room temperature on the FLIPR^TETRA, and the fluorescence intensity before and after addition was measured over a period of 4 minutes. The dye incubation time and temperature as well as instrument setting was adjusted so the fluorescence intensity could be compared between plates on the same day. EC50 and IC50 were analyzed using GraphPad Prism 4 software (GraphPad Software Inc., San Diego, Calif.).
Materials and reagent Preparation: Human Rhabdomyosarcoma cells (6D9: isolated by dilution subcloning of RMS13 cells, ATCC® Number: CRL-2061, American Type Culture Collection ATCC, Manassas, Va.) was maintained in RPMI-1640 medium (30-2001, ATCC, Manassas, Va.) supplemented with 10% (v/v) Fetal Bovine Serum (SH30071.03, Hyclone, Logan, Utah).
Dye preparation: BD™ Calcium Assay Kit (80500-301, BD Biosciences, Rockville, Md.) was prepared according to the manufacture's instruction in 1× Hanks' balanced salt solution (HBSS, 21-023-CV, Mediatech, Inc. Herndon, Va.) containing 20 mM HEPES buffer (25-060-CI, Mediatech, Inc. Herndon, Va.). Final dye loading conditions included 1.25 mM probenecid (P36400, Invitrogen, Carlsbad, Calif.) and 0.01% FBS.
Urantide (PUT-3639-PI, Peptide International, Louisville, Ky.) was prepared in water at 5 mM. For assays, U-II agonist, U-II antagonist and urantide were diluted with HBSS/HEPES containing 0.01% FBS.
Test compounds were dissolved in DMSO at 10 mM concentration. The serial dilutions were carried out in HBSS/HEPES. The highest final DMSO concentration was at 0.1%.

[4] = read-out: Human UII Average Binding Ki, average value, (^125I)-U-II binding to human skeletal muscle myoblasts (HSMM), 25° C., 3 h

`COc1ccc(C(CNC(=O)Cc2ccncc2)N2C(=O)c3cccc(N4CCN([C@H](C)c5ccccc5)CC4)c3C2=O)cc1OC` (stereo partly drawn) [Cpd 102, N-(2-(3,4-dimethoxy-phenyl)-2-{1,3-dioxo-4-[4-(1R)-(1-phenyl-ethyl)-piperazin-1-yl]-1,3-dihydro-isoindol-2-yl}-ethyl)-2-pyridin-4-yl-acetamide] gave an IC50 [1] of 49 nM, a Ki [2] of 99 nM and an IC50 [3] of 520 nM.
Work on `COc1ccc(C(CCCNC(=O)c2cccs2)N2C(=O)c3cccc(N4CCN([C@H](C)c5ccccc5)CC4)c3C2=O)cc1OC` (stereo partly drawn) [Cpd 104, thiophene-2-carboxylic acid (4-(3,4-dimethoxy-phenyl)-4-{1,3-dioxo-4-[4-(1R)-(1-phenyl-ethyl)-piperazin-1-yl]-1,3-dihydro-isoindol-2-yl}-butyl)-amide] yielded an IC50 [1] of 53 nM, a Ki [2] of 120 nM and an IC50 [3] of 170 nM.
In the case of `COc1ccc(C(CCCNS(=O)(=O)c2ccsc2)N2C(=O)c3cccc(N4CCN([C@H](C)c5ccccc5)CC4)c3C2=O)cc1OC` (stereo partly drawn) [Cpd 105, thiophene-3-sulfonic acid (4-(3,4-dimethoxy-phenyl)-4-{1,3-dioxo-4-[4-(1R)-(1-phenyl-ethyl)-piperazin-1-yl]-1,3-dihydro-isoindol-2-yl}-butyl)-amide], the IC50 [1] is reported as 68 nM, the Ki [2] is reported as 65 nM and the IC50 [3] is reported as 110 nM.
With `COc1ccc(C(CCCNS(=O)(=O)c2cccnc2)N2C(=O)c3cccc(N4CCN([C@H](C)c5ccccc5)CC4)c3C2=O)cc1OC` (stereo partly drawn) [Cpd 106, pyridine-3-sulfonic acid (4-(3,4-dimethoxy-phenyl)-4-{1,3-dioxo-4-[4-(1R)-(1-phenyl-ethyl)-piperazin-1-yl]-1,3-dihydro-isoindol-2-yl}-butyl)-amide] the IC50 [1] was 16 nM, the Ki [2] was 80 nM and the IC50 [3] was 230 nM.
In the case of `COc1ccc(C(CCCNS(=O)(=O)c2ccccn2)N2C(=O)c3cccc(N4CCN([C@H](C)c5ccccc5)CC4)c3C2=O)cc1OC` (stereo partly drawn) [Cpd 107, pyridine-2-sulfonic acid (4-(3,4-dimethoxy-phenyl)-4-{1,3-dioxo-4-[4-(1R)-(1-phenyl-ethyl)-piperazin-1-yl]-1,3-dihydro-isoindol-2-yl}-butyl)-amide], the IC50 [1] is reported as 25 nM, the Ki [2] is reported as 10 nM and the IC50 [3] is reported as 440 nM.
Molecule `COc1ccc(C(CCCNS(=O)(=O)c2cnoc2C)N2C(=O)c3cccc(N4CCN([C@H](C)c5ccccc5)CC4)c3C2=O)cc1OC` (stereo partly drawn) [Cpd 108, 5-methyl-isoxazole-4-sulfonic acid (4-(3,4-dimethoxy-phenyl)-4-{1,3-dioxo-4-[4-(1R)-(1-phenyl-ethyl)-piperazin-1-yl]-1,3-dihydro-isoindol-2-yl}-butyl)-amide] has an IC50 [1] of 14 nM, a Ki [2] of 31 nM and an IC50 [3] of 46 nM.
Work on `COc1ccc(C(CCCNS(=O)(=O)c2cccc3cccnc23)N2C(=O)c3cccc(N4CCN([C@H](C)c5ccccc5)CC4)c3C2=O)cc1OC` (stereo partly drawn) [Cpd 109, quinoline-8-sulfonic acid (4-(3,4-dimethoxy-phenyl)-4-{1,3-dioxo-4-[4-(1R)-(1-phenyl-ethyl)-piperazin-1-yl]-1,3-dihydro-isoindol-2-yl}-butyl)-amide] yielded an IC50 [1] of 27 nM, a Ki [2] of 19 nM and an IC50 [3] of 300 nM.
With `COc1ccc(C(CCCNS(=O)(=O)CS(C)(=O)=O)N2C(=O)c3cccc(N4CCN([C@H](C)c5ccccc5)CC4)c3C2=O)cc1OC` (stereo partly drawn) [Cpd 110, N-(4-(3,4-dimethoxy-phenyl)-4-{1,3-dioxo-4-[4-(1R)-(1-phenyl-ethyl)-piperazin-1-yl]-1,3-dihydro-isoindol-2-yl}-butyl)-C-methanesulfonyl-methanesulfonamide] the IC50 [1] was 19 nM, the Ki [2] was 25 nM and the IC50 [3] was 250 nM.
For `COc1ccc(C(CCCNS(=O)(=O)c2c(C)noc2C)N2C(=O)c3cccc(N4CCN([C@H](C)c5ccccc5)CC4)c3C2=O)cc1OC` (stereo partly drawn) [Cpd 112, 3,5-dimethyl-isoxazole-4-sulfonic acid (4-(3,4-dimethoxy-phenyl)-4-{1,3-dioxo-4-[4-(1R)-(1-phenyl-ethyl)-piperazin-1-yl]-1,3-dihydro-isoindol-2-yl}-butyl)-amide], the IC50 [1] was 69 nM, the Ki [2] was 26 nM and the IC50 [3] was 1400 nM.
`COc1ccc(C(CCCNS(=O)(=O)c2cn(C)c(C)n2)N2C(=O)c3cccc(N4CCN([C@H](C)c5ccccc5)CC4)c3C2=O)cc1OC` (stereo partly drawn) [Cpd 114, 1,2-dimethyl-1H-imidazole-4-sulfonic acid (4-(3,4-dimethoxy-phenyl)-4-{1,3-dioxo-4-[4-(1R)-(1-phenyl-ethyl)-piperazin-1-yl]-1,3-dihydro-isoindol-2-yl}-butyl)-amide] showed an IC50 [1] of 17 nM, a Ki [2] of 11 nM and an IC50 [3] of 470 nM.
With `COc1ccc(C(CCCNS(=O)(=O)N(C)C)N2C(=O)c3cccc(N4CCN([C@H](C)c5ccccc5)CC4)c3C2=O)cc1OC` (stereo partly drawn) [Cpd 115, N′-[(4-(3,4-dimethoxy-phenyl)-4-{1,3-dioxo-4-[4-(1R)-(1-phenyl-ethyl)-piperazin-1-yl]-1,3-dihydro-isoindol-2-yl}-butyl)]-N,N-dimethyl-sulfamide] the IC50 [1] was 28 nM, the Ki [2] was 39 nM and the IC50 [3] was 460 nM.
`COc1ccc(C(CCCNS(=O)(=O)Cc2ccccc2)N2C(=O)c3cccc(N4CCN([C@H](C)c5ccccc5)CC4)c3C2=O)cc1OC` (stereo partly drawn) [Cpd 117, N-(4-(3,4-dimethoxy-phenyl)-4-{1,3-dioxo-4-[4-(1R)-(1-phenyl-ethyl)-piperazin-1-yl]-1,3-dihydro-isoindol-2-yl}-butyl)-C-phenyl-methanesulfonamide] gave an IC50 [1] of 58 nM, a Ki [2] of 32 nM and an IC50 [3] of 700 nM.
With `COc1ccc([C@@H](CCCNS(=O)(=O)c2cccs2)N2C(=O)c3cccc(N4CCN([C@H](C)c5ccccc5)CC4)c3C2=O)cc1OC` [Cpd 118, (R)-thiophene-2-sulfonic acid (4-(3,4-dimethoxy-phenyl)-4-{1,3-dioxo-4-[4-(1R)-(1-phenyl-ethyl)-piperazin-1-yl]-1,3-dihydro-isoindol-2-yl}-butyl)-amide] the IC50 [1] was 29 nM, the Ki [2, 4] was 49 nM and the IC50 [3] was 240 nM.
With `COc1ccc([C@H](CCCNS(=O)(=O)c2cccs2)N2C(=O)c3cccc(N4CCN([C@H](C)c5ccccc5)CC4)c3C2=O)cc1OC` [Cpd 119] the IC50 [1] was 69 nM, the Ki [2, 4] was 120 nM and the IC50 [3] was 260 nM.
Molecule `COc1ccc(C(CCCNS(N)(=O)=O)N2C(=O)c3cccc(N4CCN([C@H](C)c5ccccc5)CC4)c3C2=O)cc1OC` (stereo partly drawn) [Cpd 122, N′-[(4-(3,4-dimethoxy-phenyl)-4-{1,3-dioxo-4-[4-(1R)-(1-phenyl-ethyl)-piperazin-1-yl]-1,3-dihydro-isoindol-2-yl}-butyl)]-sulfamide] has an IC50 [1] of 12 nM, a Ki [2] of 120 nM and an IC50 [3] of 500 nM.
